In US20020110801A1, “A Method for screening compounds for the modulation of cognitive function” (priority 1998, published 2002):
Marks after values point to notes of the source that are not given here.

Tests used:
[1] = tested on: dendritic spine motility in hippocampal neurons expressing GFP-actin; assay type: cell-based, rat; details: for effect of NMDA receptor blockade on spine motility: antagonist alone; for influence on the inhibition of motility by AMPA: antagonist present with AMPA
Experimental: In this example it is shown that dendritic spine motility is inhibited by AMPA. To assess the influence of glutamate receptors on dendritic spine motility video recordings are made during which agonists and antagonists of ionotropic glutamate receptors are transiently applied to hippocampal neurons expressing GFP-actin. For example, such a recording is made from part of the dendrite of a GFP-actin expressing cell in a culture that is exposed to 200 nM AMPA. In initial titration experiments, AMPA is effective at concentrations as low as 50 nM. […] The striking extent of this motility blockade may be illustrated by video data. […] In order to exclude the effect being a consequence of indirect NMDA receptor activation, the experiment may be repeated in presence of the selective NMDA receptor antagonists APV and MK801. Data may be recorded for several spines on a single dendrite segment at high magnification so that the effect of AMPA on individual spines is visible. […] The results for APV are equivalent. Such frames are taken from a longer video recording encompassing a much larger area of this dendrite and several different drug combinations. […]
All reagents for cell culturing are obtained either from Life Technologies, Basel, Switzerland, or from Sigma Chemicals/Fluka Biochemicals, Buchs, Switzerland. Cultures of primary rat hippocampal neurons are established exactly according to Goslin and Banker (Rat hippocampal neurons in low-density culture, in Culturing Nerve Cells (Bradford Book, MIT Press, Cambridge, Mass., 1991) G. Banker and K. Goslin, eds.). Briefly, dissected hippocampi of E19 rat embryos are digested with 0.25% trypsin for 15 min at 37° C. and triturated to yield a single cell suspension using a narrow-bore pasteur pipet. Neurons are plated onto polylysine treated glass coverslips in Eagle's minimal essential medium supplemented with 10% horse serum. After a 4 hr incubation the coverslips are turned over onto confluent layers of primary astroglial feeder layers in chemically defined Eagle's minimal essential medium with N2 supplement. Over a time period of 3-4 weeks, neurons develop large networks of processes and eventually matured to carry synapses on dendritic spines.
For live imaging, coverslips are mounted in saline in closed observation chambers (Type 1, Life Imaging Services, Olten, Switzerland) and placed at 37° C. on a DM-IRBE inverted fluorescence microscope (Leica, Basel, Switzerland) equipped with high numerical aperture oil lenses and a GFP-optimized filter set (Chroma Technologies, Brattleboro, Vt., USA). […]
Drugs are either applied by gravity feed perfusion or by removing the chamber lid and adding the test substance. […] The pH is adjusted to 7.2. [NMDA and AMPA receptor activity is influenced by the extracellular concentration of protons (Kashiwagi et al., 1997; Saybasili et al., 1998; Mc Donald et al., 1998)]

[2] = tested on: distribution of GFP-actin fluorescence in hippocampal neurons; assay: GFP-actin fluorescence intensity in successive video frames; assay type: cell-based, rat
Source text: In this example it is shown that AMPA treatment appears to involve a redistribution of spine actin. A further consistent consequence of treating hippocampal neurons with AMPA is a visible change in the distribution of GFP-actin fluorescence involving an apparent shift toward a concentration in the centre of the spine head. GFP-actin fluorescence intensity may be measured in successive frames of video recordings in which AMPA is transiently present. Measurements are made for a whole dendritic segment and within boxes of the same area placed in the center of spine heads or on the dendritic shaft, respectively. […] This phenomenon could reflect some general aspect of gfp fluorescence in response to an altered ion concentration or pH of the local cytoplasm. Fluorescence excitation of gfp in solution decreases at low pH. Therefore the observed decrease in brightness might be attributed to a lowered pH, mediated by glutamate receptor activation. Application of glutamate or Ca2+ ionophores to rat primary cultured hippocampal neurons is shown to induce a persistent acidosis. To account for this effect, data are normalized for single spines to the overall brightness of the dendrite. The average brightness from the boxes during the recordings for three randomly selected spines may then be evaluated. […] For above mentioned reasons, it is not entirely clear, if the apparent reduction in spine diameter is due to loss of actin fluorescence because of pH shifts or actin concentration in the center of spine heads, but comparison of phase and GFP-actin pictures argue in favour of changes in spine head size. The same caution has to apply to changes in the diameter of the spine neck, which have been postulated to influence synaptic weight by altering the electrical resistance. Those structures are extremely small and for a detailed analysis electronmicroscopic analysis would be favourable.

tadpoles = details: based on EC50 in tadpoles; read-out: Effective conc. for anesthesia; cited from earlier work
[3] = in phosphate-buffered saline; McKenzie et al. 1995; cited from earlier work
[4] = tested on: actin-based motility in dendritic spines; assay: video time-lapse recording of dendritic spine motility (shape factor) in GFP-actin transfected hippocampal neurons, volatile anaesthetics; assay type: cell-based, rat; details: for Effective conc. for spine motility: calculated from concentration of saturated solution at 25° C. used as stock solution; for effect on spine shape change / spine motility in presence of the anaesthetic: clinically relevant concentrations in saline; for spine motility after the anaesthetic is removed: washout
Experimental: To examine the influence of volatile anaesthetics on spine motility their effects on live, cultured hippocampal neurons that have been transfected with green fluorescent protein-tagged actin (GFP-actin) to render their dendritic spines visible are studied.
The following example further illustrates the employment of an assay according to the invention. First, the shape of a dendritic spine on a rat hippocampal neuron in culture as visualized by GFP-actin enriched in the spine head is recorded about every 5 sec over a period of about 6 min prior to perfusion with isoflurane. Then the cells are slowly perfused with isoflurane at clinically relevant concentrations in saline. This step is followed by an additional time-lapse recording over about 6 min. Then a morphometric analysis of spine shape is done using the integrated morphometry analysis interface in Metamorph 3.0. In particular, the shape factor calculated from the perimeter and the area of the spine illustrates changes in spine shape.
All reagents for cell culturing are obtained either from Life Technologies, Basel, Switzerland, or from Sigma Chemicals/Fluka Biochemicals, Buchs, Switzerland. […] Neurons are plated onto polylysine treated glass coverslips in Eagle's minimal essential medium supplemented with 10% horse serum. After a 4 hr incubation the coverslips are turned over onto confluent layers of primary astroglial feeder layers in chemically defined Eagle's minimal essential medium with N2 supplement. Over a time period of 3-4 weeks, neurons develop large networks of processes and eventually matured to carry synapses on dendritic spines.
For live imaging, coverslips are mounted in saline in closed observation chambers (Type 1, Life Imaging Services, Olten, Switzerland) and placed at 37° C. on a DM-IRBE inverted fluorescence microscope (Leica, Basel, Switzerland) equipped with high numerical aperture oil lenses and a GFP-optimized filter set (Chroma Technologies, Brattleboro, Vt., USA).
Images are captured using a cooled CCD camera (Princeton Instruments, Trenton, N.J., USA) and MetaMorph Imaging Software version 3.0 (Universal Imaging Corporation, West Chester, Pa., USA). Anaesthetics are diluted from saturated solutions in saline into prewarmed saline immediately prior to slow perfusion into the closed observation chambers at a rate of approx. 0.5 ml/min for a total exchange of 5 ml volume.
For analysis of spine shape over time the integrated morphometric function of MetaMorph 3.0, in particular the shape factor of thresholded objects calculated from their perimeter and their area, is used to log the data for individual images directly to Microsoft Excel 97.

rats = details: based on minimal alveolar concentration (MAC) in rats; cited from earlier work
rat embryo fibroblasts = assay: TPA-induced membrane ruffling, rhodamine-phalloidin staining of actin; assay type: cell-based; details: pretreatment of cells; 100 nM TPA 15 min
Source text: The results of these experiments on neurons pose the question of whether volatile anaesthetics act directly on actin in dendritic spines or indirectly through neurotransmitter receptors, which are also influenced by these agents at clinically relevant concentrations, or some other component of central synapses. To choose between these possibilities the influence of volatile anaesthetics on actin-based motility is examined in fibroblastic cells, where neurotransmitter receptors and other elements of the synaptic machinery are absent. […] Resting layers of rat embryo fibroblasts in saline are treated for 15 min with 100 nM TPA which induces membrane ruffling. Cells are fixed and stained with rhodamine-labelled phalloidin to visualize actin enrichment in ruffles at the edges of the cells. […]
For analysis of the actin cytoskeleton in REF52, cells plated on glass coverlips are serum-starved for several hours prior to the experiment. […] Cells are then fixed with 4% paraformaldehyde (Fluka Biochemicals, Buchs, Switzerland) in phosphate-buffered saline with 0.02% Triton X-100 (Fluka Biochemicals, Buchs, Switzerland) and […] rhodamine-labelled phalloidin F(Sigma Chemicals, Buchs, Switzerland) for 10 min at room temperature, rinsed in phosphate-buffered saline and mounted in Vectashield (Vector Laboratories, Burlingame, Calif., USA) for inspection on the fluorescence microscope.

pure actin = assay: pyrene-actin fluorescence assay of actin filament assembly in vitro; assay type: biochemical; details: during assembly or added to pre-formed filaments
Experimental: Since actin-based motility in dendritic spines depends on the actin polymerization cycle the possible influence of isoflurane on actin filament assembly is tested in vitro using a well-established pyrene-actin fluorescence assay.

## Cc1onc(OCC(=O)O)c1CC(N)C(=O)O (stereo not shown) [AMOA, 2-amino-3-[3-(carboxymethoxy)-5-methyl-isoxazol-4-yl]propionic acid]
[1]; AMPA receptor antagonist applied with AMPA
  block of the effect of AMPA on spine motility: entirely blocked

## Cc1onc(O)c1CC(N)C(=O)O (stereo not drawn) [AMPA, α-amino-3-hydroxy-5-methylisoxazole-4-propionic acid]
[1]; 50 nM to 200 nM
  dendritic varicosities associated with subsequent cell death: do not produce dendritic varicosities
  reversibility of effect on spine motility: reversible
[1]; 200 nM AMPA present
  spine movement: spine movement effectively ceases
[1]; initial titration experiments
  lowest effective concentration on spine motility: 50 nM
[2]; after application of AMPA
  GFP-actin fluorescence intensity over the whole dendrite: decrease in intensity
[2]; normalized to overall brightness of the dendrite
  average brightness of the dendritic shaft: reduced
[2]; three randomly selected spines, normalized to overall brightness of the dendrite
  GFP-actin fluorescence intensity in the centre of spine heads: marked increase

## N[C@@H](CCCP(=O)(O)O)C(=O)O [APV]
[1]
  effect of NMDA receptor blockade on spine motility: equivalent
  influence on the inhibition of motility by AMPA: equivalent

## ClC(Cl)Cl [Chloroform]
tadpoles
  EC50: 1.3 mM
[3]
  concentration of saturated solution: 66000 µM
[4]
  Effective conc. for spine motility: 1.33 mM
  effect on spine shape change / spine motility in presence of the anaesthetic: variation in spine shape is minimal
  spine motility after the anaesthetic is removed: rapid changes in spine shape are resumed

## CCOCC [Diethylether, diethylether]
tadpoles
  EC50: 25 mM
[3]
  concentration of saturated solution: 816000 µM
[4]
  Effective conc. for spine motility: 20.4 mM

## FC(F)OC(F)(F)C(F)Cl (stereo not shown) [Enflurane]
rats
  Effective conc. for anesthesia: 0.64^a mM
[3]
  concentration of saturated solution: 11900 µM
[4]
  Effective conc. for spine motility: 0.30 mM

## FC(F)(F)C(Cl)Br (stereo not shown) [Halothane]
rats
  Effective conc. for anesthesia: 0.27^a mM
[4]
  Effective conc. for spine motility: 0.23 mM

## FC(F)OC(Cl)C(F)(F)F (stereo not shown) [Isoflurane]
rats
  Effective conc. for anesthesia: 0.31^a mM
[3]
  concentration of saturated solution: 15300 µM
Rat embryo fibroblasts
  TPA-induced actin ruffles: prevents TPA-induced actin ruffles
[4]
  Effective conc. for spine motility: 0.30 mM
  effect on spine shape change / spine motility in presence of the anaesthetic: it remains constant
  spine motility after the anaesthetic is removed: recovery of motility
[4]; dilution of 1:50 of saturated solution
  spine motility: fully inhibited
[4]; dilution of 1:60 of saturated solution
  spine motility: fully motile
[4]; dilution of 1:100 of saturated solution
  spine motility: fully motile
Pure actin
  effect on polymerization state of pure actin: no detectable effect

## C=C(C)[C@H]1CN[C@H](C(=O)O)[C@H]1CC(=O)O [Kainate]
[1]
  mimics the effect of AMPA on spine motility: mimicked

## C[C@]12N[C@H](Cc3ccccc31)c1ccccc12 [MK801]
[1]
  effect of NMDA receptor blockade on spine motility: does not inhibit spine motility
  influence on the inhibition of motility by AMPA: does not influence

## COC(F)(F)C(Cl)Cl [methoxyflurane, Methoxyflurane]
[3]
  concentration of saturated solution: 9100 µM
